Drawing on patent US12421254B2, “KRAS modulators and uses thereof” (Quanta Therapeutics, Inc., priority 2023, dated 2025), this text covers IC50 for 15 compounds.

The target of experiment [1] is GST-tagged KRAS-G12D (2-169) (Homo sapiens, UniProt P01116, G12D). Kind of experiment: Nucleotide exchange assay (NEA), SOS-mediated, HTRF, KRAS G12D. The following applies: Table 4; IC50 extracted at 30 min; 20 nM SOScat; read-out: NEA G12D IC50. The format is biochemical. An excerpt: (§1) This activity is tightly regulated by GTPase activating proteins (GAPs) and guanine nucleotide exchange factors (GEFs). GEFs, such as SOS1/2, activate Ras proteins by exchanging GDP for GTP, thus returning Ras to its active conformation (Simanshu, Nissley, & McCormick, 2017). […] Homogenous time resolved fluorescence (HTRF) was used to detect SOS-mediated binding of a fluorescent GTP analog, GTP-DY-647P1 (Jena Biosciences NU-820-647P1) to GST-tagged KRAS-G12D (2-169) or to GST-tagged KRAS-G12V (2-169, Reaction Biology, MSC-11-540).
GST-tagged KRAS-G12D (2-169), sequence (P01116 2-169 isoform P01116-2 G12D): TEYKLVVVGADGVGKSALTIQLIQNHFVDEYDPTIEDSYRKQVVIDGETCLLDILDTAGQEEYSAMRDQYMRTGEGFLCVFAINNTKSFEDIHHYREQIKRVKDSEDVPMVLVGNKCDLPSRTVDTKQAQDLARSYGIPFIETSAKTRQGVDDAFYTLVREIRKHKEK
(§2) GST-tagged KRAS-G12D (2-169) and anti-GST MAb Tb Cryptate Gold (CisBio 61GSTTLB) were diluted into assay buffer (20 mM HEPES, pH 7.3, 150 mM NaCl, 5 mM MgCl2, 0.05% BSA 0.0025% NP40, 1 mM DTT) to prepare a 2.5× donor solution. 5× compound was added to the protein mixture and incubated for 1 h at RT. 2.5× acceptor solution containing SOS1cat (564-1049, Reaction Biology MSC-11-502) and GTP-DY-647P1 were then added to the donor KRAS mixture such that the final concentration of the reaction contained 0.25 nM GST-tagged KRAS-G12D (2-169), 20 nM SOScat, and 150 nM GTP-DY-647P1. The reaction was monitored using at RT with the Envision multimode plate reader (Ex/Em 337/665, […]) up to 90 minutes at 5 minute intervals. To monitor KRAS-G12V SOS-mediated nucleotide exchange, 80 nM SOS was added to reaction instead of 20 nM. All other components were the same as previously described. Data was blanked to reactions without SOS1 and % inhibition was calculated such that DMSO only =0% and blank=100%. Curve fitting was done using a 4 parameter fit. Reported IC50 values were extracted at 30 min and 90 min for the KRAS-G12D and KRAS-G12V assays, respectively.
NEA KRAS G12D IC50 (uM) values of selected compounds are depicted in Table 2 with compounds having a value <0.01 uM as ++++; ≥0.01 uM to 0.1 uM as +++; ≥0.1 uM to 1 uM as ++; ≥1 uM to 20 uM as +; and ≥20 uM as NA.
A general note: In TR-FRET formats the signal depends on donor and acceptor labels being close together.

Experiment [2] addresses GST-tagged KRAS-G12V (2-169) (Homo sapiens, UniProt P01116, G12V). Kind of experiment: Nucleotide exchange assay (NEA), SOS-mediated, HTRF, KRAS G12V. The class given is biochemical. The following applies: Table 4; IC50 extracted at 90 min; 80 nM SOS.
Description: as §1, §2

GST-tagged KRAS-G12V (2-169), sequence (P01116 2-169 isoform P01116-2 G12V): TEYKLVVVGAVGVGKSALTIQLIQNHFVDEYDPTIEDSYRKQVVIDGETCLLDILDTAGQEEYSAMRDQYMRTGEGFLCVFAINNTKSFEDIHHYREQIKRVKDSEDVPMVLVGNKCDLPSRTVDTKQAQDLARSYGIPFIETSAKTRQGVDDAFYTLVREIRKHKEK

One may read the IC50 as the concentration that gives 50% inhibition. `CN(c1nc(OC[C@@]23CCCN2C[C@H](F)C3)nc(N2CC3(CCc4sc(N)c(C#N)c43)C2)n1)[C@@H]1CCC[C@@H]1O` (racemic) [Compound 92, 2-amino-1′-[4-[[(2R,8S)-2-fluoro-1,2,3,5,6,7-hexahydropyrrolizin-8-yl]methoxy]-6-[[rac-(1R,2S)-2-hydroxycyclopentyl]-methyl-amino]-1,3,5-triazin-2-yl]spiro[5,6-dihydrocyclopenta[b]thiophene-4,3′-azetidine]-3-carbonitrile]: the half-maximal inhibitory concentration (IC50) in experiment [1] and in experiment [2] was 0.1 to 1 µM throughout.
As to `C[C@H](c1cccnc1N)N(C)c1nc(OC[C@@]23CCCN2C[C@H](F)C3)nc(N2CC3(CCc4cnn(C)c43)C2)n1` [Compound 278, N-[(1R)-1-(2-amino-3-pyridyl)ethyl]-4-[[(2R,8S)-2-fluoro-1,2,3,5,6,7-hexahydropyrrolizin-8-yl]methoxy]-N-methyl-6-(1-methylspiro[4,5-dihydrocyclopenta[d]pyrazole-6,3′-azetidine]-1′-yl)-1,3,5-triazin-2-amine], the IC50 in experiment [1] and in experiment [2] was 1 to 20 µM each time.
Take `CN(CC(=O)NC(=N)N)c1nc(OC[C@@]23CCCN2C[C@H](F)C3)nc(N2CC3(C2)SCc2sc(N)c(C#N)c23)n1` [Compound 215, 2-[[4-(2-amino-3-cyano-spiro[6H-thieno[3,4-b]thiophene-4,3′-azetidine]-1′-yl)-6-[[(2R,8S)-2-fluoro-1,2,3,5,6,7-hexahydropyrrolizin-8-yl]methoxy]-1,3,5-triazin-2-yl]-methyl-amino]-N-carbamimidoyl-acetamide]: the IC50 in experiment [1] and in experiment [2] was 0.1 to 1 µM each time.
Regarding `C[C@@]1(O)CCCN(c2nc(OC[C@@]34CCCN3C[C@H](F)C4)nc(N3CCC4(CCCc5sc(N)c(C#N)c54)C3)n2)C1` (stereo partly drawn) [Compound 60, 2-amino-1′-[4-[[(2R,8S)-2-fluoro-1,2,3,5,6,7-hexahydropyrrolizin-8-yl]methoxy]-6-[(3R)-3-hydroxy-3-methyl-1-piperidyl]-1,3,5-triazin-2-yl]spiro[6,7-dihydro-5H-benzothiophene-4,3′-pyrrolidine]-3-carbonitrile], the IC50 in experiment [1] and in experiment [2] was 1 to 20 µM in each case.
Turning to `COc1ccc(C(C)N(C)c2nc(OC[C@@]34CCCN3C[C@H](F)C4)nc(N3CC4(C3)SCc3sc(N)c(C#N)c34)n2)c(N)n1` (stereo partly drawn) [Compound 233, 2′-amino-1-(4-((1-(2-amino-6-methoxypyridin-3-yl)ethyl)(methyl)amino)-6-(((2R,7aS)-2-fluorotetrahydro-1H-pyrrolizin-7a(5H)-yl)methoxy)-1,3,5-triazin-2-yl)-6′H-spiro[azetidine-3,4′-thieno[3,4-b]thiophene]-3′-carbonitrile], the IC50 in experiment [1] fell in the range of 1 to 20 µM; in experiment [2], 0.1 to 1 µM.
Turning to `CC(c1c[nH]nc1Cl)N(C)c1nc(OC[C@@]23CCCN2C[C@H](F)C3)nc(N2CC3(CCc4sc(N)c(C#N)c43)C2)n1` (stereo partly drawn) [Compound 140, 2-amino-1′-[4-[1-(3-chloro-1H-pyrazol-4-yl)ethyl-methyl-amino]-6-[[(2R,8S)-2-fluoro-1,2,3,5,6,7-hexahydropyrrolizin-8-yl]methoxy]-1,3,5-triazin-2-yl]spiro[5,6-dihydrocyclopenta[b]thiophene-4,3′-azetidine]-3-carbonitrile], the values for the half-maximal inhibitory concentration (IC50) in experiment [1] and in experiment [2] were 1 to 20 µM and 0.1 to 1 µM, respectively.
`N#Cc1c(N)sc2c1C1(CN(c3nc(OC[C@@]45CCCN4C[C@H](F)C5)nc(N4C5CNC(=O)C4C5)n3)C1)SC2` (stereo partly drawn) [Compound 267, 2-amino-1′-[4-[[(2R,8S)-2-fluoro-1,2,3,5,6,7-hexahydropyrrolizin-8-yl]methoxy]-6-(2-oxo-3,6-diazabicyclo[3.1.1]heptan-6-yl)-1,3,5-triazin-2-yl]spiro[6H-thieno[3,4-b]thiophene-4,3′-azetidine]-3-carbonitrile]: the IC50 in experiment [1] is 0.01 to 0.1 µM; in experiment [2], less than 0.01 µM.
For `C[C@H](c1cccnc1N)N(C)c1nc(OC[C@@]23CCCN2C[C@H](F)C3)nc(N2CCC3(CCCc4sc(N)c(C#N)c43)C2=O)n1` (single isomer, unassigned) [Compound 175A, (*)-2-amino-1′-(4-(((R)-1-(2-aminopyridin-3-yl)ethyl)(methyl)amino)-6-(((2R,7aS)-2-fluorotetrahydro-1H-pyrrolizin-7a(5H)-yl)methoxy)-1,3,5-triazin-2-yl)-2′-oxo-6,7-dihydro-5H-spiro[benzo[b]thiophene-4,3′-pyrrolidine]-3-carbonitrile], the IC50 was 0.01 to 0.1 µM in experiment [1] and less than 0.01 µM in experiment [2].
For the compound `CO/N=C(\C(C)=O)C(=O)N1[C@@H]2CC[C@H]1CN(c1nc(OC[C@@]34CCCN3C[C@H](F)C4)nc(N3CC4(C3)SCc3sc(N)c(C#N)c34)n1)C2` [Compound 161, 2-amino-1′-[4-[[(2R,8S)-2-fluoro-1,2,3,5,6,7-hexahydropyrrolizin-8-yl]methoxy]-6-[(1R,5S)-8-[(2Z)-2-methoxyimino-3-oxo-butanoyl]-3,8-diazabicyclo[3.2.1]octan-3-yl]-1,3,5-triazin-2-yl]spiro[6H-thieno[3,4-b]thiophene-4,3′-azetidine]-3-carbonitrile], the IC50 in experiment [1] was 1 to 20 µM; in experiment [2], 0.1 to 1 µM.
For the compound `N#Cc1c(N)sc2c1C1(CC2)CN(c2nc(OCC3(CN4CCOCC4)CC3)nc(N3CCCC(O)(CO)C3)n2)C1` (stereo not drawn) [Compound 95, 2-amino-1′-[4-[3-hydroxy-3-(hydroxymethyl)-1-piperidyl]-6-[[1-(morpholinomethyl)cyclopropyl]methoxy]-1,3,5-triazin-2-yl]spiro[5,6-dihydrocyclopenta[b]thiophene-4,3′-azetidine]-3-carbonitrile], the half-inhibitory concentration (IC50) in experiment [1] and in experiment [2] was 0.01 to 0.1 µM each time.
Take `N#Cc1c(N)sc2c1C1(CN(c3nc(OC[C@@]45CCCN4C[C@H](F)C5)nc(Oc4cn[nH]c4)n3)C1)SC2` [Compound 164, 2-amino-1′-[4-[[(2R,8S)-2-fluoro-1,2,3,5,6,7-hexahydropyrrolizin-8-yl]methoxy]-6-(1H-pyrazol-4-yloxy)-1,3,5-triazin-2-yl]spiro[6H-thieno[3,4-b]thiophene-4,3′-azetidine]-3-carbonitrile]: the results for the half-inhibitory concentration (IC50) in experiment [1] and in experiment [2] were 0.1 to 1 µM and 0.01 to 0.1 µM, respectively.
As for `N#Cc1c(N)sc2c1C1(CN(c3nc(OC[C@@]45CCCN4C[C@H](F)C5)nc(N4C5CNCC4CC(=O)C5)n3)C1)SC2` [Compound 276, 2-amino-1′-[4-[[(2R,8S)-2-fluoro-1,2,3,5,6,7-hexahydropyrrolizin-8-yl]methoxy]-6-(7-oxo-3,9-diazabicyclo[3.3.1]nonan-9-yl)-1,3,5-triazin-2-yl]spiro[6H-thieno[3,4-b]thiophene-4,3′-azetidine]-3-carbonitrile], the figures for the IC50 in experiment [1] and in experiment [2] were 0.1 to 1 µM and 0.01 to 0.1 µM, respectively.
As for `CC(C1=NN=CC1Cl)N(C)c1nc(OC[C@@]23CCCN2C[C@H](F)C3)nc(N2CC3(CCc4sc(N)c(C#N)c43)C2)n1` (stereo partly drawn) [Compound 127, 2-amino-1′-[4-[1-(4-chloro-1H-pyrazol-5-yl)ethyl-methyl-amino]-6-[[(2R,8S)-2-fluoro-1,2,3,5,6,7-hexahydropyrrolizin-8-yl]methoxy]-1,3,5-triazin-2-yl]spiro[5,6-dihydrocyclopenta[b]thiophene-4,3′-azetidine]-3-carbonitrile], the IC50 was 1 to 20 µM in experiment [1] and 0.1 to 1 µM in experiment [2].
For `CCN(c1nc(OC[C@@]23CCCN2C[C@H](F)C3)nc(N2CC3(C2)SCc2sc(N)c(C#N)c23)n1)C1(C(N)=O)CC1` [Compound 234, 1-[[4-(2-amino-3-cyano-spiro[6H-thieno[3,4-b]thiophene-4,3′-azetidine]-1′-yl)-6-[[(2R,8S)-2-fluoro-1,2,3,5,6,7-hexahydropyrrolizin-8-yl]methoxy]-1,3,5-triazin-2-yl]-ethyl-amino]cyclopropanecarboxamide], the IC50 in experiment [1] lay in the range of 0.1 to 1 µM; in experiment [2], 0.01 to 0.1 µM.
Turning to `CN(c1nc(OC[C@@]23CCCN2C[C@H](F)C3)nc(N2CC3(CCc4sc(N)c(C#N)c43)C2)n1)[C@H]1COC[C@H]1O` (racemic) [Compound 53, 2-amino-1′-[4-[[(2R,8S)-2-fluoro-1,2,3,5,6,7-hexahydropyrrolizin-8-yl]methoxy]-6-[[rac-(3S,4S)-4-hydroxytetrahydrofuran-3-yl]-methyl-amino]-1,3,5-triazin-2-yl]spiro[5,6-dihydrocyclopenta[b]thiophene-4,3′-azetidine]-3-carbonitrile], the values for the IC50 in experiment [1] and in experiment [2] were 1 to 20 µM and 0.1 to 1 µM, respectively.
